# US9328122B2, “7-substituted Hanfangichin B derivative, and preparation method and use thereof” (HANGZHOU BENSHENG PHARMACEUTICAL CO., LTD., priority 2012, dated 2016)
# Tests used:
# tumor = experiment: Antitumor activity compared with fangchinoline, overall statement; type: cell-based; conditions: tumor type not specified
# [1] = tested on: Becap-37 (human breast cancer) cells; experiment: MTT cell growth inhibition, solid tumor cells; type: cell-based; conditions: for IC50 / IC90: Homo sapiens, Becap-37, 72 h, MTT; for IC50: read-out: IC50; for IC90: read-out: IC90
# How it was run: (§1)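 Seeding: 6000 cells/well, DMEM high glucose + 10% FBS, 24 h, 37 °C/5% CO2. Compound at graded concentrations, 72 h. Readout MTT (viable cells).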
# [2] = tested on: U87-MG (malignant glioma) cells; experiment: MTT cell growth inhibition, solid tumor cells; type: cell-based; conditions: Homo sapiens, U-87 MG, U87-MG, 72 h, MTT; for IC50: read-out: IC50; for IC90: read-out: IC90
# How it was run: as §1
# [3] = tested on: MG-63 (osteosarcoma) cells; experiment: MTT cell growth inhibition, solid tumor cells; type: cell-based; conditions: Homo sapiens, MG-63, 72 h, MTT; for IC50: read-out: IC50; for IC90: read-out: IC90
# How it was run: as §1
# [4] = tested on: A549 (human lung cancer) cells; experiment: MTT cell growth inhibition, solid tumor cells; type: cell-based; conditions: Homo sapiens, A549, 72 h, MTT; for IC50: read-out: IC50; for IC90: read-out: IC90
# How it was run: as §1
# [5] = tested on: Hep G2 (human liver cancer) cells; experiment: MTT cell growth inhibition, solid tumor cells; type: cell-based; conditions: for IC50 / IC90: Homo sapiens, HepG2, Hep G2, 72 h, MTT; for IC50: read-out: IC50; for IC90: read-out: IC90
# How it was run: as §1
# [6] = tested on: RKO (human colon adenocarcinoma) cells; experiment: MTT cell growth inhibition, solid tumor cells; type: cell-based; conditions: for IC50 / IC90: Homo sapiens, RKO, 72 h, MTT; for IC50: read-out: IC50; for IC90: read-out: IC90
# How it was run: as §1
# [7] = tested on: Hep-2 (laryngeal carcinoma) cells; experiment: MTT cell growth inhibition, solid tumor cells; type: cell-based; conditions: Homo sapiens, Hep-2, 72 h, MTT; for IC50: read-out: IC50; for IC90: read-out: IC90
# How it was run: as §1
# [8] = tested on: MGC-803 (human gastric cancer) cells; experiment: MTT cell growth inhibition, solid tumor cells; type: cell-based; conditions: MGC-803, 72 h, MTT; for IC50: read-out: IC50; for IC90: read-out: IC90
# How it was run: as §1
# [9] = tested on: Hela (human cervical cancer) cells; experiment: MTT cell growth inhibition, solid tumor cells; type: cell-based; conditions: for IC50 / IC90: Homo sapiens, Hela, 72 h, MTT; for IC50: read-out: IC50; for IC90: read-out: IC90
# How it was run: as §1
# [10] = tested on: CaEs-17 (esophageal cancer) cells; experiment: MTT cell growth inhibition, solid tumor cells; type: cell-based, human; conditions: for IC50 / IC90: Homo sapiens, CaEs17, CaEs-17, 72 h, MTT; for IC50: read-out: IC50; for IC90: read-out: IC90
# How it was run: as §1
# [11] = tested on: PANC-1 (pancreatic cancer) cells; experiment: MTT cell growth inhibition, solid tumor cells; type: cell-based, human; conditions: for IC50 / IC90: Homo sapiens, PANC-1, 72 h, MTT; for IC50: read-out: IC50; for IC90: read-out: IC90
# How it was run: as §1
# [12] = tested on: PC-3 (prostate cancer) cells; experiment: MTT cell growth inhibition, solid tumor cells; type: cell-based, human; conditions: for IC50 / IC90: Homo sapiens, PC-3, 72 h, MTT; for IC50: read-out: IC50; for IC90: read-out: IC90
# How it was run: as §1
# [13] = tested on: CNE (nasopharyngeal carcinoma) cells; experiment: MTT cell growth inhibition, solid tumor cells; type: cell-based, human; conditions: for IC50 / IC90: Homo sapiens, CNE, 72 h, MTT; for IC50: read-out: IC50; for IC90: read-out: IC90
# How it was run: as §1
# [14] = tested on: SK-OV-3 (ovarian cancer) cells; experiment: MTT cell growth inhibition, solid tumor cells; type: cell-based, human; conditions: for IC50 / IC90: Homo sapiens, SK-OV-3, 72 h, MTT; for IC50: read-out: IC50; for IC90: read-out: IC90
# How it was run: as §1
# [15] = tested on: NB4 (acute promyelocytic leukemia) cells; experiment: MTT cell growth inhibition, leukemia cells; type: cell-based; conditions: Homo sapiens, NB4, 72 h, MTT; for IC50: read-out: IC50; for IC90: read-out: IC90
# How it was run: (§2)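 MTT read-out of viable cells after 72 h compound exposure at 37° C., 5% CO2; 6000 cells/well in RPMI-1640 + 10% FBS, dosed one day after seeding over a range of concentrations.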
# [16] = tested on: K562/ADR (K562adr, drug-resistant chronic myeloid leukemia) cells; experiment: MTT cell growth inhibition, leukemia cells; type: cell-based; conditions: Homo sapiens, K562/ADR, 72 h, MTT; for IC50: read-out: IC50; for IC90: read-out: IC90
# How it was run: as §2
# [17] = tested on: RPMI 8226 (multiple myeloma) cells; experiment: MTT cell growth inhibition, multiple myeloma cells; type: cell-based, human; conditions: Homo sapiens, RPMI 8226, 72 h, MTT; for IC50: read-out: IC50; for IC90: read-out: IC90
# How it was run: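 Viable-cell readout by MTT after 72 h exposure (37° C, 5% CO2) of RPMI 8226 cells to a range of compound concentrations, added one day post-seeding. Cells were seeded at 6000 per well in RPMI-1640 containing 10% FBS.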
# [18] = relative to fangchinoline, Table 2
smiles,measurement,setting,value
COc1cc(OC)cc(C(=O)Oc2c(OC)cc3c4c2Oc2cc5c(cc2OC)CCN(C)[C@H]5Cc2ccc(cc2)Oc2cc(ccc2OC)C[C@@H]4N(C)CC3)c1 [BS-FC-311],antitumor activity compared with that of fangchinoline,tumor,significantly superior
same,IC50,[1],1.53 µg/mL
same,IC90,[1],3.03 µg/mL
same,IC50,[2],1.25 µg/mL
same,IC90,[2],3.8 µg/mL
same,IC50,[3],2 µg/mL
same,IC90,[3],4.37 µg/mL
same,IC50,[4],1.36 µg/mL
same,IC90,[4],4.38 µg/mL
same,IC50,[5],1.4 µg/mL
same,IC90,[5],2.76 µg/mL
same,IC50,[6],1.32 µg/mL
same,IC90,[6],3.24 µg/mL
same,IC50,[7],1.64 µg/mL
same,IC90,[7],4.85 µg/mL
same,IC50,[8],1.4 µg/mL
same,IC90,[8],4.79 µg/mL
same,IC50,[9],0.5 µg/mL
same,IC90,[9],2.89 µg/mL
same,anti-Hela activity increase over fangchinoline,[9]; [18],~4 fold
same,IC50,[10],1.95 µg/mL
same,IC90,[10],7.37 µg/mL
same,IC50,[11],2.95 µg/mL
same,IC90,[11],4.8 µg/mL
same,IC50,[12],3.08 µg/mL
same,IC90,[12],8.39 µg/mL
same,IC50,[13],1.83 µg/mL
same,IC90,[13],5.04 µg/mL
same,IC50,[14],2.87 µg/mL
same,IC90,[14],3.96 µg/mL
same,IC50,[15],0.22 µg/mL
same,IC90,[15],0.96 µg/mL
same,IC50,[16],0.48 µg/mL
same,IC90,[16],2.83 µg/mL
same,IC50,[17],0.13 µg/mL
same,IC90,[17],0.49 µg/mL
COc1ccc2cc1Oc1ccc(cc1)C[C@H]1c3cc(c(OC)cc3CCN1C)Oc1c(OC(=O)c3c(F)cccc3Cl)c(OC)cc3c1[C@H](C2)N(C)CC3 [BS-FC-315],antitumor activity compared with that of fangchinoline,tumor,significantly superior
same,IC50,[1],2.1 µg/mL
same,IC90,[1],3.79 µg/mL
same,IC50,[2],1.34 µg/mL
same,IC90,[2],3.24 µg/mL
same,IC50,[3],2.4 µg/mL
same,IC90,[3],3.9 µg/mL
same,IC50,[4],1.85 µg/mL
same,IC90,[4],3.48 µg/mL
same,IC50,[5],1.39 µg/mL
same,IC90,[5],3.74 µg/mL
same,IC50,[6],1.15 µg/mL
same,IC90,[6],2.23 µg/mL
same,IC50,[7],3.66 µg/mL
same,IC90,[7],6.4 µg/mL
same,IC50,[8],1.21 µg/mL
same,IC90,[8],3.02 µg/mL
same,IC50,[9],1.5 µg/mL
same,IC90,[9],3.35 µg/mL
same,IC50,[10],1.84 µg/mL
same,IC90,[10],3.86 µg/mL
same,IC50,[11],1.61 µg/mL
same,IC90,[11],5.52 µg/mL
same,IC50,[12],2.95 µg/mL
same,IC90,[12],5.02 µg/mL
same,IC50,[13],3.3 µg/mL
same,IC90,[13],6.6 µg/mL
same,IC50,[14],2.99 µg/mL
same,IC90,[14],6.81 µg/mL
same,IC50,[15],0.33 µg/mL
same,IC90,[15],1.32 µg/mL
same,IC50,[16],0.26 µg/mL
same,IC90,[16],2.14 µg/mL
same,IC50,[17],0.13 µg/mL
same,IC90,[17],0.48 µg/mL
COc1ccc2cc1Oc1ccc(cc1)C[C@H]1c3cc(c(OC)cc3CCN1C)Oc1c(OCC(O)CN3CCCCC3)c(OC)cc3c1[C@H](C2)N(C)CC3 (stereo partly drawn) [BS-FC-403],antitumor activity compared with that of fangchinoline,tumor,significantly superior
same,IC50,[1],0.59 µg/mL
same,IC90,[1],2.09 µg/mL
same,anti-Becap37 activity increase over fangchinoline,[1]; [18],~3 fold
same,IC50,[2],0.71 µg/mL
same,IC90,[2],1.73 µg/mL
same,IC50,[3],0.6 µg/mL
same,IC90,[3],1.3 µg/mL
same,IC50,[4],1.84 µg/mL
same,IC90,[4],6.34 µg/mL
same,IC50,[5],0.55 µg/mL
same,IC90,[5],2.23 µg/mL
same,anti-Hep G2 activity increase over fangchinoline,[5]; [18],~3 fold
same,IC50,[6],0.34 µg/mL
same,IC90,[6],0.79 µg/mL
same,anti-RKO activity increase over fangchinoline,[6]; [18],~3 fold
same,IC50,[7],1.76 µg/mL
same,IC90,[7],5.66 µg/mL
same,IC50,[8],0.4 µg/mL
same,IC90,[8],4.14 µg/mL
same,IC50,[9],0.9 µg/mL
same,IC90,[9],2.96 µg/mL
same,IC50,[10],0.43 µg/mL
same,IC90,[10],1.99 µg/mL
same,anti-CaEs-17 activity increase over fangchinoline,[10]; [18],~4 fold
same,IC50,[11],1.03 µg/mL
same,IC90,[11],3.17 µg/mL
same,anti-PANC-1 activity increase over fangchinoline,[11]; [18],~3 fold
same,IC50,[12],1.49 µg/mL
same,IC90,[12],3.96 µg/mL
same,anti-PC-3 activity increase over fangchinoline,[12]; [18],~3 fold
same,IC50,[13],0.87 µg/mL
same,IC90,[13],2.2 µg/mL
same,anti-CNE activity increase over fangchinoline,[13]; [18],~3 fold
same,IC50,[14],1.03 µg/mL
same,IC90,[14],3.85 µg/mL
same,anti-SK-OV-3 activity increase over fangchinoline,[14]; [18],~3 fold
same,IC50,[15],0.3 µg/mL
same,IC90,[15],0.78 µg/mL
same,IC50,[16],0.05 µg/mL
same,IC90,[16],0.83 µg/mL
same,IC50,[17],< 0.125 µg/mL
same,IC90,[17],0.13 µg/mL
